From patent US11578140B2, “Immunoassay for mitragynine” (MICROGENICS CORPORATION, priority 2019, dated 2023)

Test system: anti-mitragynine antibody
Test: Cross reactivity of the anti-mitragynine antibody against kratom alkaloids and mitragynine metabolites
Type: binding, Balb/c mice
Conditions: for Cross Reactivity (%): tested concentration (ng/mL): Mitragynine 50, 7-hydroxy mitragynine 35,000-40,000, Paynantheine 25,000-35,000, Speciociliatine 25,000-35,000, 16-carboxy mitragynine 300-360, 9-Hydroxycorynantheidine 3,125-4,000; for cross reactivity (in words): metabolites of mitragynine, antibody derived from the BSA immunogen
Method: In a particular embodiment of the invention, the BSA-containing immunogen of Example 4 (Compound 6) was administered to Balb/c mice in a series of injections as is routine in the art. Alternatively, other mammals are suitable for antibody production. Screening of anti-serum samples taken from the immunized mice was performed to assess antibody titer and to evaluate the ability of antibodies in the samples to bind to enzyme-donor conjugate described in Example 6.
In particular, β-galactosidase enzyme donor polypeptide fragment combines with a β-galactosidase enzyme acceptor fragment to form active β-galactosidase enzyme. The active enzyme complex is capable of transforming a substrate into a product that is differentially detectable. Usually, the product is a different color from the substrate and is quantified using spectrophotometric methods. […] Therefore, the enzyme-catalyzed reaction rate is directly proportional to the concentration of target analyte present in the specimen tested. A preferred β-galactosidase enzyme donor is ED28, a polypeptide containing residues 6-45 of β-galactosidase, with cysteines at positions 1 and 46 (relative to the numbering of the original β-galactosidase fragment).
The cross reactivity of the anti-mitragynine antibody derived from the immunogen described above was tested against certain kratom alkaloids and metabolites of mitragynine shown below.

SMILES | Cross Reactivity (%) | cross reactivity (in words)
CC[C@@H]1CN2CC[C@@]3(O)C(=Nc4cccc(OC)c43)[C@@H]2C[C@@H]1/C(=C\OC)C(=O)OC [7-hydroxy mitragynine] | ≤0.2% | –
CC[C@@H]1CN2CCc3c([nH]c4cccc(O)c34)[C@@H]2C[C@@H]1/C(=C\OC)C(=O)OC [9-Hydroxycorynantheidine, (E)-2-[(25,35,12b5)-3-ethyl-8-hydroxy-1,2,3,4,6,7,12,12b-octahydroindolo [2,3-a]quinozilizin-2-yl]-3-methoxy propenoic acid methyl ester] | 1.25-1.6% | low levels of cross reactivity
CC[C@@H]1CN2CCc3c([nH]c4cccc(OC)c34)[C@@H]2C[C@@H]1/C(=C\OC)C(=O)O [16-carboxy mitragynine] | 13.9-16.7% | low levels of cross reactivity
CC[C@@H]1CN2CCc3c([nH]c4cccc(OC)c34)[C@@H]2C[C@@H]1/C(=C\OC)C(=O)OC [Mitragynine, methyl (E)-2-[(2S,3S,12bS)-3-ethyl-8-methoxy-1,2,3,4,6,7,12,12b-octahydroindolo[2,3-a]quinolizin-2-yl]-3-methoxyprop-2-enoate] | 100% | –
C=C[C@H]1CN2CCc3c([nH]c4cccc(OC)c34)[C@@H]2C[C@@H]1/C(=C\OC)C(=O)OC [Paynantheine] | ≤0.2% | –
CC[C@@H]1CN2CCc3c([nH]c4cccc(OC)c34)[C@H]2C[C@@H]1/C(=C\OC)C(=O)OC [Speciociliatine] | ≤0.2% | –
